{"source": "patent US6071896A", "about": "“Suppression of thromboxane levels by percutaneous administration of aspirin” (Gundersen Clinic, Ltd., priority 1998, dated 2000)", "test": "Plasma aspirin and salicylate after dermal aspirin (NICI-GCMS), Example 4", "type": "in vivo, human", "conditions": "dermal aspirin 750 mg, single application", "method": "The preservation of vascular cyclooxygenase is consistent with the low bioavailability of the dermal aspirin. Plasma aspirin and salicylate were determined using a highly sensitive assay that can measure levels of <0.1 ng/ml. Following oral aspirin 325 mg or 162 mg, peak plasma aspirin levels were 2.0 and 1.3 ug/ml, respectively. In contrast, following dermal aspirin, plasma levels peaked at 237±114 ng/ml and plasma salicylate peaked at 788±114 ng/ml.\nAspirin was applied in a dose of 750 mg on one limb over a 15 min interval. Samples were drawn from the opposite arm. Blood was withdrawn into heparin (10 U/ml final concentration) and potassium fluoride (5% final concentration), the latter to prevent ex vivo metabolism of aspirin by plasma esterases. The plasma was separated immediately and stored at […] until analyzed. Aspirin and its metabolite, salicylic acid, were measured by NICI-GCMS using deuterium-labelled analogues as internal standards, as previously described [Clark, supra]."}
{"smiles": "CC(=O)Oc1ccccc1C(=O)O", "note": "[aspirin, acetyl salicylic acid]", "values": [{"measurement": "Plasma aspirin up to three hours", "value": "barely detectable"}, {"measurement": "concentration at 24 h", "setting": "human, plasma, topical or ocular", "value": "4 ± 3", "unit": "ng/mL"}, {"measurement": "Cmax", "setting": "human, plasma, topical or ocular, read-out: Plasma aspirin, about 3 h (peak)", "value": "237 ± 114", "unit": "ng/mL"}, {"measurement": "concentration at 6 h", "setting": "human, plasma, topical or ocular, read-out: Plasma aspirin, six hours", "value": "52 ± 14", "unit": "ng/mL"}]}
